From publication PMC6060961, “Synthesis of unsymmetrical disulfanes bearing 1,2,4-triazine scaffold and their in vitro screening towards anti-breast cancer activity” (Monatshefte Fur Chemie, 2018)
Where two headings read alike, the source gives them in different places.

Assays:
Fibroblasts = assay: DNA synthesis assay ([3H]-thymidine incorporation), fibroblasts; type: cell-based, human; settings: read-out: IC50 inhibition of [3H]-thymidine incorporation into DNA
[1] = system: MCF-7 human breast cancer cells; assay: Cell viability (MTT) assay, MCF-7; type: cell-based
Experimental: (§1) The viability of MCF-7 breast cancer cells was measured by the method of Carmichael using 3-(4,5-dimethylthiazol-2-yl)-2,5-diphenyltetrazolium (Table 2). In terms of reduction in cell viability, the compounds rank in MCF-7 cells in the order chlorambucil > 4j > 4i > 4h > 4n > 4k > 4l > 4a > 4g > 4b–4f.
(§2) Cultured normal human skin fibroblasts and MCF-7 human breast cancer cells were maintained in DMEM supplemented with 10% fetal bovine serum (FBS), 50 U/cm^3 penicillin, and 50 μg/cm^3 streptomycin at 37 °C. Cells were cultured in Costar flasks and subconfluent cells were detached with 0.05% trypsin and 0.02% EDTA in calcium-free phosphate-buffered saline, counted in hemocytometers, and plated at 5 × 10^5 cells per well of 6-well plates (Nunc) in 2 cm^3 of growth medium (DMEM without phenol red with 10% CPSR1). Cells reached about 80% of confluency at day 3, and in most cases, such cells were used for the assays.
(§3) The assay was performed according to the method of Carmichael using 3-(4,5-dimethylthiazole-2-yl)-2,5-diphenyltetrazolium bromide (MTT). Confluent cells cultured for 24 h with various concentrations of studied compounds in 6-well plates were washed three times with PBS and then incubated for 4 h in 1 cm^3 of MTT solution (0.5 mg/cm^3 of PBS) at 37 °C in 5% CO2 in an incubator. The medium was removed and 1 cm^3 of […] HCl in absolute isopropanol was added to the cells attached. Absorbance of converted dye in the living cells was measured at a wavelength of 570 nm. Cell viability of breast cancer cells cultured in the presence of ligands was calculated as percentage of controlled cells.

[2] = system: MCF-7 breast cancer cells; assay: DNA synthesis assay ([3H]-thymidine incorporation), MCF-7; type: cell-based, human
Experimental: We studied the effect of compounds 4a–4n and chlorambucil on DNA synthesis in MCF-7 breast cancer cells (Table 3).
as §2
MCF-7 cells were seeded in 6-well plates and were incubated with varying concentrations of […] or chlorambucil and 0.5 μCi of [^3H]-thymidine for 24 h at 37 °C [51]. The cells were then harvested by trypsinization, washed with cold phosphate-buffered saline, and centrifuged for 10 min at 1500 g several times (4–5) until the dpm in the washes were similar to the reagent control. Radioactivity was determined by liquid scintillation counting. [^3H]-thymidine uptake was expressed as dpm/well.

[3] = Cell viability (MTT) assay, fibroblasts; type: cell-based, human
Experimental: as §1, §2, §3

[4] = system: human breast cancer cell line (MCF-7 and MDA-MB-231); design: method as in PMID 26133068; settings: cell line not specified (MCF-7 and MDA-MB-231 tested); cited from earlier work
[5] = system: normal human skin fibroblasts; assay: Cell viability (MTT) assay, fibroblasts; type: cell-based
Experimental: as §1, §2, §3

[6] = Homo sapiens, Fibroblast, Fibroblasts, 24 h, mean ± SD of four independent experiments
[7] = Homo sapiens, MCF7, 24 h, read-out: IC50 cytotoxicity (cell viability, MTT)
[8] = Homo sapiens, MCF7, MCF-7 cells, 24 h, mean ± SD of four independent experiments, read-out: IC50 inhibition of [3H]-thymidine incorporation into DNA
[9] = Fibroblasts, 24 h, mean ± SD of four independent experiments
[10] = MCF-7 cells, 24 h, mean ± SD of four independent experiments, read-out: IC50 inhibition of [3H]-thymidine incorporation into DNA

IC50 [2, 8]	Molecule	IC50 (Fibroblasts; [6])	IC50 [1, 7]	IC50 at 24 h ([3]; human)	further results
188 ± 1 µM	OCCCCCCCCCCCSSc1nnc(-c2ccccc2)c(-c2ccccc2)n1 [Compound 4g, 5,6-Diphenyl-1,2,4-triazine-3-yl 11-hydroxyundecyl disulfide]	> 200 µM	197 ± 1 µM	> 200 µM	–
–	O=C(O)CCCc1ccc(N(CCCl)CCCl)cc1 [Chlorambucil, reference compound]	–	97 ± 2 µM	–	IC50 (Fibroblasts; Homo sapiens, Fibroblast): 120 ± 1 µM; IC50 ([2]; Homo sapiens, MCF7, read-out: IC50 inhibition of [3H]-thymidine incorporation into DNA): 47 ± 2 µM; IC50 at 24 h ([3]; normal human skin fibroblasts, 24 h, mean ± SD of four independent experiments, read-out: IC50 cytotoxicity (cell viability, MTT)): 150 ± 1 µM
> 200 µM	CCCCSSc1nnc(-c2ccccc2)c(-c2ccccc2)n1 [Compound 4b, 5,6-Diphenyl-1,2,4-triazine-3-yl n-butyl disulfide]	> 200 µM	> 200 µM	> 200 µM	–
142 ± 1 µM	O=[N+]([O-])c1ccc(SSc2nnc(-c3ccccc3)c(-c3ccccc3)n2)cc1 [Compound 4l, 5,6-Diphenyl-1,2,4-triazine-3-yl 4-nitrophenyl disulfide]	> 200 µM	140 ± 1 µM	> 200 µM	–
59 ± 2 µM	COc1ccc(SSc2nnc(-c3ccccc3)c(-c3ccccc3)n2)cc1 [Compound 4j, 5,6-Diphenyl-1,2,4-triazine-3-yl 4-methoxyphenyl disulfide]	> 200 µM	102 ± 2 µM	> 200 µM	–
–	c1ccc(-c2nnc(SSc3nnc(-c4ccccc4)c(-c4ccccc4)n3)nc2-c2ccccc2)cc1 [5,5′,6,6′-tetraphenylbis(1,2,4-triazin-3-yl)disulfane]	–	–	–	IC50 [4]: 25 µM
83 ± 1 µM	Clc1ccc(SSc2nnc(-c3ccccc3)c(-c3ccccc3)n2)cc1 [Compound 4k, 5,6-Diphenyl-1,2,4-triazine-3-yl 4-chlorophenyl disulfide]	> 200 µM	121 ± 2 µM	> 200 µM	–
68 ± 2 µM	c1ccc(SSc2nnc(-c3ccccc3)c(-c3ccccc3)n2)cc1 [Compound 4h, 5,6-Diphenyl-1,2,4-triazine-3-yl phenyl disulfide]	> 200 µM	115 ± 2 µM	> 200 µM	–
> 200 µM	CCCCCSSc1nnc(-c2ccccc2)c(-c2ccccc2)n1 [Compound 4e, 5,6-Diphenyl-1,2,4-triazine-3-yl n-pentyl disulfide]	> 200 µM	> 200 µM	> 200 µM	–
75 ± 2 µM	c1ccc(-c2nnc(SSc3nc4ccccc4s3)nc2-c2ccccc2)cc1 [Compound 4n, 5,6-Diphenyl-1,2,4-triazine-3-yl benzothiazol-2-yl disulfide]	> 200 µM	119 ± 2 µM	> 200 µM	–
–	5,6-Diphenyl-1,2,4-triazine-3-yl tert-butyl disulfide [Compound 4d]	–	–	–	IC50 (Fibroblasts; [9]): > 200 µM; IC50 [1]: > 200 µM; IC50 [2, 10]: > 200 µM; IC50 [5]: > 200 µM
> 200 µM	CCCCCCCCCCCCSSc1nnc(-c2ccccc2)c(-c2ccccc2)n1 [Compound 4f, 5,6-Diphenyl-1,2,4-triazine-3-yl n-dodecyl disulfide]	> 200 µM	> 200 µM	> 200 µM	–
188 ± 2 µM	CC(C)SSc1nnc(-c2ccccc2)c(-c2ccccc2)n1 [Compound 4a, 5,6-Diphenyl-1,2,4-triazine-3-yl isopropyl disulfide]	> 200 µM	190 ± 2 µM	> 200 µM	–
–	5,6-Diphenyl-1,2,4-triazine-3-yl isobutyl disulfide [Compound 4c]	–	–	–	IC50 (Fibroblasts; [9]): > 200 µM; IC50 [1]: > 200 µM; IC50 [2, 10]: > 200 µM; IC50 [5]: > 200 µM
60 ± 2 µM	Cc1ccc(SSc2nnc(-c3ccccc3)c(-c3ccccc3)n2)cc1 [Compound 4i, 5,6-Diphenyl-1,2,4-triazine-3-yl p-tolyl disulfide]	> 200 µM	108 ± 1 µM	> 200 µM	–
